US8506946B2, “Compositions and methods for attracting noctuid moths” (Cotton Incorporated, priority 2006, dated 2013)

Legend:
Spodoptera exigua = test: Field trap capture of Spodoptera exigua with (Z)-11-hexadecen-1-ol with or without synergist (Tedders traps); format: in vivo; conditions: approximately 3-6 mg β-caryophyllene added to (Z)-11-hexadecen-1-ol vs control trap with (Z)-11-hexadecen-1-ol only
Protocol: An experiment was carried out in three locations in Arkansas to study the response of beet army worm, Spodoptera exigua, in a cotton field to a pheromone synergist. The locations were near Fayetteville, Washington County, near Tillar, Drew County, and near Foreman, Little River County. β-caryophyllene was used as a synergist with (Z)-11-hexadecen-1-ol, a pheromone for Spodoptera exigua. Tedders traps were used in the experiment. Each pheromone trap was baited with (Z)-11-hexadecen-1-ol and approximately 3-6 mg of β-caryophyllene and each control trap was baited with (Z)-11-hexadecen-1-ol. The control trap contained no β-caryophyllene or other synergists. The trapped adult insects of Spodoptera exigua were collected on a daily basis and the total number of trapped insects was counted. Statistical analysis was done using the Least Squares means separation from the SAS GLM procedure.

Heliothis virescens = test: Field trap capture of Heliothis virescens with pheromone mixture with or without synergist (Tedders traps); format: in vivo
Protocol: An experiment was carried out near Monticello, Drew County in Arkansas to study the response of tobacco bud worm, Heliothis virescens to a pheromone synergist. The experiment was carried out in a habitat of cotton and soybean. β-caryophyllene was used as a synergist with a mixture of pheromones (Z,E)-9,12-tetradecadien-1-ol acetate and (Z)-9-tetradecen-1-ol acetate at the ratio of 7:3. Tedders traps were used in the experiment. Each pheromone trap was baited with the pheromone mixture and approximately 3-6 mg of 3-caryophyllene and each control trap was baited with the pheromone mixture. The control trap contained no β-caryophyllene or other synergists. The pheromone mixture used in the experiment was LURETAPE® obtained from Hereon Environmental in Emigsville, Pa. The trapped adult insects of Heliothis virescens were collected on a daily basis and the total number of trapped insects was counted. Statistical analysis was done using the Least Squares means separation from the SAS GLM procedure.

## C=C1CC/C=C(\C)CC[C@@H]2[C@@H]1CC2(C)C [β-caryophyllene]
Spodoptera exigua; year 2004, FIG. 4
  change in the number of captured Spodoptera exigua: ~−9%
Spodoptera exigua; year 2005, cotton field, three locations in Arkansas, FIG. 3
  increase in the number of captured Spodoptera exigua: ~69%
Heliothis virescens; year 2004, approximately 3-6 mg β-caryophyllene added to pheromone mixture 7:3 (LURETAPE) vs control trap with pheromone mixture only, FIG. 2
  increase in the number of captured Heliothis virescens: ~147%
Heliothis virescens; year 2005, approximately 3-6 mg β-caryophyllene added to pheromone mixture (Z,E)-9,12-tetradecadien-1-ol acetate and (Z)-9-tetradecen-1-ol acetate 7:3 (LURETAPE) vs control trap with pheromone mixture only, cotton and soybean habitat, Arkansas, FIG. 1
  increase in the number of captured Heliothis virescens: ~131%
